Earlier results, collected in US20220273802A1, “METHODS FOR IMPROVED DELIVERY OF AMINOTHIOLS, DIMERS OF AMINOTHIOLS, AND HETERODIMERS COMPOSED OF AMINOTHIOLS” (THE BURLINGTON HC RESEARCH GROUP, INC., priority 2012, published 2022).

How the values were obtained:
V79 cells = conditions: for activity if present outside of V79 cells: compound present outside of cells
[1] = test system: three species of adenovirus
SIV = conditions: later studies
mouse L cells = conditions: for radioprotective effect upon mouse L cells in culture: compound alone, without dephosphorylation

| SMILES | activity if present outside of V79 cells (V79 cells) | antiviral efficacy against HIV (HIV) | antiviral efficacy against influenza virus A and B (influenza virus A and B) | antiviral efficacy against three species of adenovirus [1] | efficacy against SIV (SIV) | radioprotective effect upon mouse L cells in culture (mouse L cells) | protection against gamma-radiation (V79 cells; correlated with intracellular levels) | radioprotective activity (mouse L cells; incubated with mouse liver homogenate (active alkaline phosphatase)) |
| --- | --- | --- | --- | --- | --- | --- | --- | --- |
| NCCCNCCSSCC(N)C(=O)O (stereo not drawn) [WR-1065-Cys] | did not show evidence of activity |  |  |  |  |  |  |  |
| NCCCNCCSSCCNCCCN [WR-33278] | did not show evidence of activity |  |  |  |  |  |  |  |
| NCCCNCCS [WR-1065] | did not show evidence of activity | exhibits antiviral efficacy | exhibits antiviral efficacy | exhibits antiviral efficacy | demonstrated efficacy | Activity also was observed | significant protection |  |
| NCCCNCCSP(=O)(O)O [Amifostine] | did not show evidence of activity |  |  |  |  | no radioprotective effect |  | radioprotective activity was observed |
